In ChEMBL document CHEMBL1201862, “PubChem BioAssay data set” (2004):
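1) Cells in 96-well plates. 2) Compound, 48 h, 5 concentrations. 3) Linear interpolation between surrounding doses. 4) Unreached endpoint = highest concentration. GI50 marks 50% less growth.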 Activity calls are given as the source filed them. Cut-off read from the data, not from the text of the source: active = GI50 up to about 1.1 µM and inactive = higher.

Legend:
Experiment in all cases: DTP human tumour cell line panel, 48 h
[1] = system: NCI-H23
[2] = system: K562
[3] = system: Malme-3M
[4] = system: T47D
[5] = system: NCI-H460
[6] = system: OVCAR-8
[7] = system: RXF 393
[8] = system: SN12C
[9] = system: U-251
[10] = system: LOX IMVI
[11] = system: EKVX
[12] = system: HT-29
[13] = system: SK-OV-3
[14] = system: SF-268
[15] = system: UACC-257
[16] = system: SF-295
[17] = system: Hs-578T
[18] = system: 786-0
[19] = system: SF-539
[20] = system: NCI-H522

SMILES	GI50 [1]	GI50 [2]	GI50 [3]	GI50 [4]	GI50 [5]	GI50 [6]	GI50 [7]	GI50 [8]	GI50 [9]	GI50 [10]	GI50 [11]	GI50 [12]	GI50 [13]	GI50 [14]	GI50 [15]	GI50 [16]	GI50 [17]	GI50 [18]	GI50 [19]	GI50 [20]
CC(C)/C(Cl)=N\OC(NC(=O)P(=O)(c1ccccc1)c1ccccc1)(C(F)(F)F)C(F)(F)F	2.99 µM (inactive)	4.25 µM (inactive)	7.52 µM (inactive)	10.9 µM (inactive)	15.2 µM (inactive)	13 µM (inactive)	14.6 µM (inactive)	11.9 µM (inactive)	2.88 µM (inactive)	11.3 µM (inactive)	20 µM (inactive)	16.1 µM (inactive)	27 µM (inactive)	12.1 µM (inactive)	17.8 µM (inactive)	11.6 µM (inactive)	23.9 µM (inactive)	10.3 µM (inactive)	13.5 µM (inactive)	
O=[N+]([O-])c1ccc(/N=N/N2CCCC2)cc1	> 100 µM (inactive)	> 100 µM (inactive)		> 100 µM (inactive)	> 100 µM (inactive)	> 100 µM (inactive)	> 100 µM (inactive)	> 100 µM (inactive)	> 100 µM (inactive)	> 100 µM (inactive)	> 100 µM (inactive)		> 100 µM (inactive)	> 100 µM (inactive)	> 100 µM (inactive)	> 100 µM (inactive)	> 100 µM (inactive)	> 100 µM (inactive)	> 100 µM (inactive)	> 100 µM (inactive)
CCOc1ccc(C(c2c(O)c3ccccc3oc2=O)c2c(O)c3ccccc3oc2=O)cc1	44.4 µM (inactive)	53.8 µM (inactive)	48.8 µM (inactive)	41.4 µM (inactive)		43.9 µM (inactive)		43.8 µM (inactive)	32.7 µM (inactive)	66.5 µM (inactive)	80.4 µM (inactive)	40.9 µM (inactive)	47.4 µM (inactive)	44.5 µM (inactive)	35.6 µM (inactive)	> 100 µM (inactive)	37.6 µM (inactive)	78.2 µM (inactive)	48 µM (inactive)	30.7 µM (inactive)
N#CCCN(CCC#N)c1ccc(C(=N/c2ccc(Cl)cc2)/N=N/c2ccccc2)cc1	54.2 µM (inactive)	> 100 µM (inactive)		12.8 µM (inactive)	55.1 µM (inactive)	> 100 µM (inactive)	16.9 µM (inactive)	> 100 µM (inactive)	> 100 µM (inactive)		99.5 µM (inactive)	> 100 µM (inactive)	> 100 µM (inactive)	> 100 µM (inactive)	59.4 µM (inactive)	10.9 µM (inactive)	> 100 µM (inactive)	> 100 µM (inactive)	> 100 µM (inactive)	36.6 µM (inactive)
CN(C)Cc1cc(/N=N/c2ccccc2Cl)cc(CN(C)C)c1O	> 100 µM (inactive)	37.5 µM (inactive)	> 10 µM (inactive)	> 100 µM (inactive)	47.2 µM (inactive)	45.5 µM (inactive)	31.6 µM (inactive)	> 100 µM (inactive)	84.3 µM (inactive)	16.9 µM (inactive)	> 100 µM (inactive)	42.9 µM (inactive)		73.8 µM (inactive)	20.1 µM (inactive)	44.7 µM (inactive)	28.1 µM (inactive)	76.9 µM (inactive)	> 100 µM (inactive)	12.3 µM (inactive)
O=S(=O)(c1ccccc1)n1c2ccc(Br)cc2c2nc3ccccc3nc21	> 100 µM (inactive)	> 100 µM (inactive)	> 100 µM (inactive)	> 100 µM (inactive)	> 100 µM (inactive)	> 100 µM (inactive)	> 100 µM (inactive)	> 100 µM (inactive)	> 100 µM (inactive)	> 100 µM (inactive)		> 100 µM (inactive)		> 100 µM (inactive)	> 100 µM (inactive)	> 100 µM (inactive)	> 100 µM (inactive)	> 100 µM (inactive)		> 100 µM (inactive)
CCOC(=O)Nn1c(CC#N)nnc1Cc1ccccc1	> 100 µM (inactive)	> 100 µM (inactive)	> 100 µM (inactive)	84.9 µM (inactive)	> 100 µM (inactive)	> 100 µM (inactive)	> 100 µM (inactive)	> 100 µM (inactive)	> 100 µM (inactive)			> 100 µM (inactive)		> 100 µM (inactive)	> 100 µM (inactive)	> 100 µM (inactive)	> 100 µM (inactive)	> 100 µM (inactive)	> 100 µM (inactive)	> 100 µM (inactive)
CCN(CC)CC[n+]1ccc2c(C)c3[nH]c4ccccc4c3c(C)c2c1	0.546 µM (active)	0.214 µM (active)	0.662 µM (active)	0.188 µM (active)	0.251 µM (active)		1.55 µM (inactive)	0.285 µM (active)	0.163 µM (active)	0.689 µM (active)	1.02 µM (active)	0.684 µM (active)		0.164 µM (active)	0.713 µM (active)	0.789 µM (active)	0.0405 µM (active)	0.56 µM (active)	0.612 µM (active)	0.406 µM (active)
CCOC(=O)C(NC(=O)OC(C)(C)C)C(=O)OCC	> 100 µM (inactive)	> 100 µM (inactive)		> 100 µM (inactive)	> 100 µM (inactive)	> 100 µM (inactive)	> 100 µM (inactive)	> 100 µM (inactive)	> 100 µM (inactive)		> 100 µM (inactive)	> 100 µM (inactive)	> 100 µM (inactive)	> 100 µM (inactive)	> 100 µM (inactive)		> 100 µM (inactive)	> 100 µM (inactive)		> 100 µM (inactive)
Cc1nc2c(O)nc3ccccc3c2o1	> 100 µM (inactive)		> 100 µM (inactive)	> 100 µM (inactive)	> 100 µM (inactive)	> 100 µM (inactive)	> 100 µM (inactive)	> 100 µM (inactive)	> 100 µM (inactive)	> 100 µM (inactive)	48.9 µM (inactive)	> 100 µM (inactive)	> 100 µM (inactive)	> 100 µM (inactive)	> 100 µM (inactive)	> 100 µM (inactive)	> 100 µM (inactive)	> 100 µM (inactive)	> 100 µM (inactive)	
COc1c(Br)cc2ccccc2c1-c1c(OC)c(Br)cc2ccccc12	> 100 µM (inactive)	38.9 µM (inactive)		7.01 µM (inactive)	> 100 µM (inactive)	> 100 µM (inactive)	> 100 µM (inactive)		> 100 µM (inactive)	> 100 µM (inactive)	> 100 µM (inactive)	> 100 µM (inactive)	> 100 µM (inactive)	> 100 µM (inactive)	> 100 µM (inactive)	> 100 µM (inactive)	> 100 µM (inactive)	> 100 µM (inactive)	> 100 µM (inactive)	74.6 µM (inactive)
COc1ccc(N/N=C2\CCOc3ccc(C)cc3C2=O)cc1		4.43 µM (inactive)	11.1 µM (inactive)	2.14 µM (inactive)	13.7 µM (inactive)	31.8 µM (inactive)		40.6 µM (inactive)	20.9 µM (inactive)	12.4 µM (inactive)	21.3 µM (inactive)	7.8 µM (inactive)	18.2 µM (inactive)	35.5 µM (inactive)	14.9 µM (inactive)	10.3 µM (inactive)	25.1 µM (inactive)	17.4 µM (inactive)	40.6 µM (inactive)	24.7 µM (inactive)
CC(=O)NC1C(OCc2ccccc2)OC(CO)C(O)C1OC(C)C(=O)NC(C(=O)N[C@@H](CCC(=O)NCCNCCNc1c2ccccc2nc2cccc([N+](=O)[O-])c12)C(N)=O)C(C)C (some centres undefined)	34 µM (inactive)	0.0158 µM (active)	36.2 µM (inactive)	68.2 µM (inactive)	14.7 µM (inactive)	19.6 µM (inactive)		20.9 µM (inactive)	65.8 µM (inactive)	29.2 µM (inactive)			> 100 µM (inactive)	36.1 µM (inactive)		48.5 µM (inactive)	> 100 µM (inactive)	22.4 µM (inactive)	14.9 µM (inactive)	
CC1(C)C[C@H](O)[C@H](O)[C@]23C(=O)O[C@H](O)[C@H]2C(C=O)=CC[C@@H]13	> 100 µM (inactive)	> 100 µM (inactive)	> 100 µM (inactive)	73.1 µM (inactive)	> 100 µM (inactive)	> 100 µM (inactive)	> 100 µM (inactive)	> 100 µM (inactive)	96.2 µM (inactive)	> 100 µM (inactive)	> 100 µM (inactive)	> 100 µM (inactive)		> 100 µM (inactive)	> 100 µM (inactive)	> 100 µM (inactive)	> 100 µM (inactive)	> 100 µM (inactive)	> 100 µM (inactive)	> 100 µM (inactive)
CN(CCN(C)C(=S)NN)C(=S)NN	> 100 µM (inactive)		> 100 µM (inactive)	> 100 µM (inactive)	> 100 µM (inactive)			> 100 µM (inactive)	> 100 µM (inactive)	> 100 µM (inactive)	> 100 µM (inactive)	> 100 µM (inactive)	> 100 µM (inactive)	> 100 µM (inactive)	> 100 µM (inactive)	> 100 µM (inactive)	> 100 µM (inactive)	> 100 µM (inactive)		> 100 µM (inactive)
